Assay: xn = mol fraction of the nth substance listed
Conditions: Liquid; for mass density: 298.15 K, 101.3 kPa, Vibrating tube method; for interfacial tension: 303.15 K, maximum differential bubble pressure

CCC(C)(C)OC [2-methoxy-2-methylbutane] + CCCCCC
Conditions	interfacial tension [mN/m]	mass density [kg/m3]
x2 = 0	22	765.8
x2 = 0.038	–	761.49
x2 = 0.051	21.6	–
x2 = 0.092	–	755.29
x2 = 0.1	21.06	–
x2 = 0.145	–	749.34
x2 = 0.194	–	743.82
x2 = 0.209	20.64	–
x2 = 0.247	–	737.76
x2 = 0.305	20.12	–
x2 = 0.346	–	726.73
x2 = 0.399	19.8	–
x2 = 0.443	–	715.93
x2 = 0.497	–	709.95
x2 = 0.506	19.12	–
x2 = 0.552	–	703.83
x2 = 0.597	–	698.92
x2 = 0.611	18.71	–
x2 = 0.644	–	693.78
x2 = 0.696	–	688.15
x2 = 0.714	18.34	–
x2 = 0.745	–	682.72
x2 = 0.795	–	677.33
x2 = 0.813	18.02	–
x2 = 0.852	–	671.14
x2 = 0.901	–	665.86
x2 = 0.914	17.66	–
x2 = 0.952	–	660.3
x2 = 0.96	17.55	–

CCCCCC [hexane] + CCC(C)(C)OC
x1 = 1
Conditions	interfacial tension [mN/m]	mass density [kg/m3]
–	17.4	655.19

— the NIST ThermoML archive (doi:10.1016/j.fluid.2011.06.007)
